How the values were obtained:
[1] = target: Voltage-gated inwardly rectifying potassium channel KCNH2 (Homo sapiens, UniProt Q12809); test: Inhibition of human Erg expressed in HEK293 cells by whole cell patch clamp analysis
[2] = Inhibition of rat N-type calcium channel alpha1B/alpha2delta-1/beta1b expressed in HEK293 cells by whole cell patch clamp analysis; assay type: cell-based
[3] = organism: Rattus norvegicus; test: animal or person; conditions: ip, read-out: INH
[4] = system: Rattus norvegicus; test: Antiallodynic activity in rat chung model of neuropathic pain assessed as paw withdrawal at 30 mg/kg, po measured at 30 mins interval for 3 hrs relative to control
[5] = system: Rattus norvegicus; test: Antiallodynic activity in rat chung model of neuropathic pain assessed as inhibition of nerve ligation-induced thermal hyperalgesia at 30 mg/kg, po measured at 30 mins interval for 3 hrs relative to control
[6] = Inhibition of rat L-type calcium channel alpha1C/alpha2delta-1/beta1b expressed in HEK293 cells by whole cell patch clamp analysis; assay type: cell-based
[7] = organism: Rattus norvegicus; test: animal or person; conditions: ip, read-out: INH; remark: listed apart in the source
[8] = organism: Rattus norvegicus; test: animal or person; conditions: ip, read-out: INH; remark: listed apart in the source

Sequence of Voltage-gated inwardly rectifying potassium channel KCNH2 (Q12809 whole entry): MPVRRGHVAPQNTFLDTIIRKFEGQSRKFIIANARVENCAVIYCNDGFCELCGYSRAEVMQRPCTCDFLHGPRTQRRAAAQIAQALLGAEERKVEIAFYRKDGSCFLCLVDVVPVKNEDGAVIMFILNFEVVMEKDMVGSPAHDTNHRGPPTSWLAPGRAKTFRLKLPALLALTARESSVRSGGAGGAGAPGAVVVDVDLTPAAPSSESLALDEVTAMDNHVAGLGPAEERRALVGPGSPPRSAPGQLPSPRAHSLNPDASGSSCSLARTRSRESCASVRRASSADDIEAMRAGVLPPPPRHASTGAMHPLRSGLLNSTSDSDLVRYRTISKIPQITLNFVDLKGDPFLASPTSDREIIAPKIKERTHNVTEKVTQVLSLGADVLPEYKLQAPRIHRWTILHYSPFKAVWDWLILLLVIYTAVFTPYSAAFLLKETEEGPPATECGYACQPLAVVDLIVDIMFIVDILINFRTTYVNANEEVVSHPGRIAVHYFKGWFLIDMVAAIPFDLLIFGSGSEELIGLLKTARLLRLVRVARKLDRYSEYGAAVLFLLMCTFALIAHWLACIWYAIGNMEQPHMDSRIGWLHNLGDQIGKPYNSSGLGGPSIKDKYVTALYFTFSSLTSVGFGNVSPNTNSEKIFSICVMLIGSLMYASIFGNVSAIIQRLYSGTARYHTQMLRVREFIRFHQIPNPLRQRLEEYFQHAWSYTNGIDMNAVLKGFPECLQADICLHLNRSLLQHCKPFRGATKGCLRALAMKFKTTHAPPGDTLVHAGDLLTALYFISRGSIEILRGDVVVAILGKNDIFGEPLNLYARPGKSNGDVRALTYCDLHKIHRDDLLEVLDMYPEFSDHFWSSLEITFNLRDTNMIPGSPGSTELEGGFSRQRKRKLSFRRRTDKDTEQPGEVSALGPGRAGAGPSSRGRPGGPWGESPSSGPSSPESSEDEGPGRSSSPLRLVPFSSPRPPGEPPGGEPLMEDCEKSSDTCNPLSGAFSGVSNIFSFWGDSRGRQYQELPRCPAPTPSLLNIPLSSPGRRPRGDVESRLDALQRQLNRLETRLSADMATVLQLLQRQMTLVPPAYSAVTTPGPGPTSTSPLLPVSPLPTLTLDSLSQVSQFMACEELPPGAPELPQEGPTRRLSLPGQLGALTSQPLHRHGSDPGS

| SMILES | IC50 [2] [µM] | also measured |
| --- | --- | --- |
| COc1cc(CN2CCN(CCCCCC(c3ccc(F)cc3)c3ccc(F)cc3)CC2)cc(OC)c1OC | – | IC50 [1]: 0.4 µM |
| COc1cc(CN2CCN(CCCCCC(c3ccc(F)cc3)c3ccc(F)cc3)CC2)cc(OC)c1O | 0.4 | – |
| COc1cc(C(=O)N2CCN(C(=O)CCCCC(c3ccc(F)cc3)c3ccc(F)cc3)CC2)cc(OC)c1O | 0.6 | – |
| CC(C)(C)c1cc(CN2CCN(CCCCCC(c3ccc(F)cc3)c3ccc(F)cc3)CC2)cc(C(C)(C)C)c1O | 0.04 | IC50 [1]: 0.1 µM |
| CC(C)(C)c1cc(C(=O)N2CCN(CCCCCC(c3ccc(F)cc3)c3ccc(F)cc3)CC2)cc(C(C)(C)C)c1O | 0.15 | – |
| CC(C)(C)c1cc(CN2CCN(C(=O)CCCCC(c3ccc(F)cc3)c3ccc(F)cc3)CC2)cc(C(C)(C)C)c1O | 0.18 | – |
| COc1c(C(C)(C)C)cc(CN2CCN(CCCCCC(c3ccc(F)cc3)c3ccc(F)cc3)CC2)cc1C(C)(C)C | 0.09 | – |
| COc1c(C(C)(C)C)cc(C(=O)N2CCN(CCCCCC(c3ccc(F)cc3)c3ccc(F)cc3)CC2)cc1C(C)(C)C | 0.11 | – |
| COc1c(C(C)(C)C)cc(CN2CCN(C(=O)CCCCC(c3ccc(F)cc3)c3ccc(F)cc3)CC2)cc1C(C)(C)C | 0.1 | – |
| Fc1ccc(C(CCCCCN2CCN(Cc3cc(C(F)(F)F)cc(C(F)(F)F)c3)CC2)c2ccc(F)cc2)cc1 | 1.1 | – |
| O=C(CCCCC(c1ccc(F)cc1)c1ccc(F)cc1)N1CCN(C(=O)c2cc(C(F)(F)F)cc(C(F)(F)F)c2)CC1 | 0.51 | – |
| COc1cc(C(=O)NCC2CCN(CCCCCC(c3ccc(F)cc3)c3ccc(F)cc3)C2)cc(OC)c1OC (stereo not drawn) | 0.28 | – |
| COc1cc(CNCC2CCN(CCCCCC(c3ccc(F)cc3)c3ccc(F)cc3)C2)cc(OC)c1OC (stereo not drawn) | 0.06 | – |
| CC(C)(C)c1cc(CNCC2CCN(CCCCCC(c3ccc(F)cc3)c3ccc(F)cc3)C2)cc(C(C)(C)C)c1O (stereo not drawn) | 0.05 | – |
| COc1cc(C(=O)NCC2CCN(C(=O)CCCCC(c3ccccc3)C3CCN(C)CC3)C2)cc(OC)c1OC (stereo not drawn) | 3.2 | – |
| COc1c(C(C)C)cc(C(=O)NCC2CCN(C(=O)CCCCC(c3ccccc3)C3CCN(C)CC3)C2)cc1C(C)C (stereo not drawn) | 1.9 | – |
| COc1c(C)cc(C(=O)NCC2CCN(C(=O)CCCCC(c3ccccc3)C3CCN(C)CC3)C2)cc1C (stereo not drawn) | 0.1 | – |
| CN1CCC(C(CCCCC(=O)N2CCC(CNC(=O)c3cc(Cl)cc(Cl)c3)C2)c2ccccc2)CC1 (stereo not drawn) | 0.88 | – |
| COc1cc(C(=O)N2CCC(CNC(=O)CCCCC(c3ccc(F)cc3)c3ccc(F)cc3)C2)cc(OC)c1OC (stereo not drawn) | 0.84 | IC50 [1]: 0.75 µM |
| COc1cc(CN2CCC(CNCCCCCC(c3ccc(F)cc3)c3ccc(F)cc3)C2)cc(OC)c1OC (stereo not drawn) | 0.06 | IC50 [1]: 0.1 µM |
| CC(C)(C)c1cc(CN2CCC(CNCCCCCC(c3ccc(F)cc3)c3ccc(F)cc3)C2)cc(C(C)(C)C)c1O (stereo not drawn) | 0.004 | – |
| COc1c(C(C)(C)C)cc(CN2CCC(CNCCCCCC(c3ccc(F)cc3)c3ccc(F)cc3)C2)cc1C(C)(C)C (stereo not drawn) | 0.032 | – |

Continued, in another order:

| IC50 [2] [µM] | SMILES | also measured |
| --- | --- | --- |
| 0.22 | CC(C)(C)c1cc(C(=O)N2CCN(C(=O)CCCCC(c3ccc(F)cc3)c3ccc(F)cc3)CC2)cc(C(C)(C)C)c1O | – |
| 0.09 | COc1c(C(C)(C)C)cc(C(=O)N2CCN(C(=O)CCCCC(c3ccc(F)cc3)c3ccc(F)cc3)CC2)cc1C(C)(C)C | inhibition in vivo at 30 mg/kg [3]: 79%; Emax at 30 mg/kg [4]: 1.9%; Emax at 30 mg/kg [5]: 54.2% |
| 0.14 | CC(C)(C)c1cc(CN2CCN(CCCCCC(c3ccc(F)cc3)c3ccc(F)cc3)CC2)cc(C(C)(C)C)c1 | – |
| 0.3 | CC(C)(C)c1cc(C(=O)N2CCN(C(=O)CCCCC(c3ccc(F)cc3)c3ccc(F)cc3)CC2)cc(C(C)(C)C)c1 | – |
| 0.01 | COc1c(C(C)(C)C)cc(C(=O)N2CCN(C(=O)CCCCC(c3ccc(F)cc3)c3ccc(F)cc3)[C@@H](C)C2)cc1C(C)(C)C | – |
| 0.04 | COc1c(C(C)(C)C)cc(C(=O)N2CCN(C(=O)CCCCC(c3ccc(F)cc3)c3ccc(F)cc3)C[C@@H]2C)cc1C(C)(C)C | IC50 [6]: 144 µM; inhibition in vivo at 30 mg/kg [3]: 79%; inhibition in vivo at 30 mg/kg [7]: 61%; inhibition in vivo at 30 mg/kg [8]: 50%; Emax at 30 mg/kg [4]: 31.7%; Emax at 30 mg/kg [5]: 85.8% |
| 0.11 | CC(C)(C)c1cc(C(=O)NCC2CCN(C(=O)CCCCC(c3ccc(F)cc3)c3ccc(F)cc3)C2)cc(C(C)(C)C)c1 (stereo not drawn) | – |
| 0.04 | COc1c(C(C)(C)C)cc(C(=O)NCC2CCN(C(=O)CCCCC(c3ccc(F)cc3)c3ccc(F)cc3)C2)cc1C(C)(C)C (stereo not drawn) | – |
| 0.21 | O=C(NCC1CCN(C(=O)CCCCC(c2ccc(F)cc2)c2ccc(F)cc2)C1)c1cc(C(F)(F)F)cc(C(F)(F)F)c1 (stereo not drawn) | – |
| 0.75 | O=C(NCC1CCN(C(=O)CCCCC(c2ccc(F)cc2)c2ccc(F)cc2)C1)c1cc(F)cc(C(F)(F)F)c1 (stereo not drawn) | – |
| 0.15 | O=C(NCC1CCN(CCCCCC(c2ccc(F)cc2)c2ccc(F)cc2)C1)c1cc(C(F)(F)F)cc(C(F)(F)F)c1 (stereo not drawn) | – |
| 0.03 | CC(C)(C)c1cc(CNCC2CCN(CCCCCC(c3ccc(F)cc3)c3ccc(F)cc3)C2)cc(C(C)(C)C)c1 (stereo not drawn) | IC50 [1]: 0.46 µM |
| 0.16 | CC(C)(C)c1cc(C(=O)NC[C@H]2CCN(C(=O)CCCCC(c3ccc(F)cc3)c3ccc(F)cc3)C2)cc(C(C)(C)C)c1 | – |
| 0.12 | CC(C)(C)c1cc(C(=O)NC[C@@H]2CCN(C(=O)CCCCC(c3ccc(F)cc3)c3ccc(F)cc3)C2)cc(C(C)(C)C)c1 | – |
| 0.15 | COc1c(C(C)(C)C)cc(C(=O)NC[C@H]2CCN(C(=O)CCCCC(c3ccc(F)cc3)c3ccc(F)cc3)C2)cc1C(C)(C)C | – |
| 0.1 | O=C(NC[C@H]1CCN(C(=O)CCCCC(c2ccc(F)cc2)c2ccc(F)cc2)C1)c1cc(C(F)(F)F)cc(C(F)(F)F)c1 | – |
| 0.09 | O=C(NC[C@@H]1CCN(C(=O)CCCCC(c2ccc(F)cc2)c2ccc(F)cc2)C1)c1cc(C(F)(F)F)cc(C(F)(F)F)c1 | – |
| 1.9 | COc1c(C(C)(C)C)cc(C(=O)N2CCC(CNC(=O)CCCCC(c3ccc(F)cc3)c3ccc(F)cc3)C2)cc1C(C)(C)C (stereo not drawn) | – |
